Patent US8034810B2, “Arylsulfonamido-substituted hydroxamic acid derivatives” (Novartis AG, priority 1999, dated 2011)
pIC50: −log10 of the molar value.

target: T1, MT1-MMP (Homo sapiens, UniProt P50281); assay: In vitro inhibition of MT1-MMP, fluorogenic peptide substrate; assay type: biochemical; conditions: catalytic domain of human MT1-MMP; substrate 10 μM; 37° C.
T1 construct: made in house
Method: The inhibitory activities of compounds of formula I on MT1-MMP, MMP1 (collagenase 1) and MMP2 (gelatinase A) can be determined as follows:
Stock solutions of substrate (MCA-Pro-Leu-Gly-Leu-Dpa-Ala-Arg-NH2, Knight, C. G., Willenbrock, F., Murphy, G., A novel coumarin-labelled peptide for sensitive continuous assays of the matrix metalloproteinases, FEBS lett., 296, 263-266, (1992)), are prepared in 100% DMSO at a concentration 1.0 mM. Stock solutions of inhibitors are prepared in 100% DMSO. The inhibitor is diluted into the assays from a solution in 100% DMSO, and controls substitute an equal volume of DMSO so that the final DMSO concentration from inhibitor and substrate dilutions in all assays is 6.0%. Assays are performed in assay buffer (150 mM NaCl, 10 mM CaCl2, 50 mM Tris-Cl pH7.5, 0.05% Brij-35) containing 6.0% DMSO once the substrate and inhibitor are diluted into it. The substrate concentration used in the assays is 10 μM. The test is carried out at 37° C. The fluorescence changes are monitored using an excitation wavelength of 320 nm and an emission wavelength of […]. The reaction mixture is added in duplicate to appropriate wells of a 96 well microfluor plate. The reaction mixture is preincubated with the inhibitor for 30 min, the reaction is started by the addition of MMP enzyme and the fluorescence intensity is measured for 10 min. A time point that is on a linear part of the curve is chosen to determine the activity. The inhibition results are expressed as the inhibitor concentrations that produced 50% inhibition (IC50) of the activity in the control (non-inhibited) reaction. In this test, the compounds of the formula I and their pharmacologically acceptable salts have an inhibiting concentration IC50 [μmol/litre] of 0.0001 and 0.030, usually of 0.0002 to 0.010, for MMP2 and an inhibiting concentration IC50 [μmol/litre] of 0.0005 and 0.125, usually of 0.001 to 0.05, for MT1-MMP.
Plasmid: The catalytic domain of the cDNA fragment encoding a full length of human MT1-MMP gene [from Prof. Motoharu Seiki, Institute of Medical Science, The University of Tokyo; Sato, H., Takino, T., Okada, Y., Cao, J., Shinagawa, A., Yamamoto, E. and Seiki, M. Nature (London), 370:61-65, 1994)] is amplified by polymerase chain reaction (PCR). […] The resulting PCR product of a 519-bp fragment is subcloned between the NdeI and BamHI unique sites of pET11a (Stratagene). The sequence of catalytic domain of MT1-MMP (CD-MT1-MMP) is verified by the ABI PRIS™ dye terminator cycle sequencing kit with the ABI PRISM™ 377 DNA sequencer (Perkin Elmer).
Expression and Purification: The subcloned CD-MT1-MMP is used to transfect E. coli strain BL21-[DE3] (Hanahan, D. J. Mol. Biol. 1983; 166(4):557-80) and expressed as insoluble inclusion body materials. Transfectants are grown at 37° C. in 50 ml Luria-Bertani (LB) medium in the presence of 50 µg/ml ampicillin to a cell density of OD600=0.6-1.0, and CD-MT1-MMP production is induced with 1 mM isopropyl-1-D-galactopyranoside (IPTG). After treatments with 5 mg/ml lysozyme and 10 μg/ml DNase I, the inclusion bodies are prepared from the harvested cells by using the detergent buffer containing 0.2 M NaCl, 1% w/v deoxycholic acid, and 1% v/v Nonidet P40. The solubilization is achieved by resuspending the inclusion bodies in the solubilization buffer composed of 6 M urea, 100 mM 2-mercaptoethanol, and 20 mM Tris-Cl, pH8.5. The enzyme is purified and renaturated using 10 ml of a Q-Sepharose (Amersham Pharmacia Biotech) column equilibrated with 5 mM CaCl2, 0.02% v/v NaN3, in 20 mM Tris-Cl pH7.5. After washing with three volumes of the same buffer, the bound proteins are eluted with two volumes of a linear gradient of 0.5-1.0 M NaCl. The collected fractions (1 ml each) are dialyzed for 6 h in equilibrated buffer. Superdex G200 column (1×15 cm) (Amersham Pharmacia) is equilibrated in 20 mM Tris-Cl, pH 7.5, 5 mM CaCl2, 0.02% NaN3. The desalted sample is applied to Superdex G200 column and chromatographed at 0.5 ml/min. […]

| SMILES | pIC50 |
| --- | --- |
| C=CCCOc1ccc(S(=O)(=O)N(Cc2cccc(OC)c2)[C@@H](C(=O)NO)C(C)C)cc1 [Example 13, (R)-2-[(4-but-3-enyloxy-benzenesulfonyl)-(3-methoxy-benzyl)-amino]-N-hydroxy-3-methyl-butyramide] | 8.26 |
| COc1cccc(CN([C@H](C)C(=O)NO)S(=O)(=O)c2ccc(OCCCCl)cc2)c1 [Example 15, (R)-2-{[4-(3-chloro-propoxy)-benzenesulfonyl]-(3-methoxy-benzyl)-amino}-N-hydroxy-propionamide] | 8.43 |
| O=C(NO)[C@@H](Cc1ccccc1)N(Cc1ccc(Cl)cc1)S(=O)(=O)c1ccc(OCCCF)cc1 [Example 30, (R)-2-{(4-chloro-benzyl)-[4-(3-fluoro-propoxy)-benzenesulfonyl]-amino}-N-hydroxy-3-phenyl-propionamide] | 7.90 |
| COc1ccc(CN([C@H](CC(C)C)C(=O)NO)S(=O)(=O)c2ccc(OCCCCF)cc2)cc1 [Example 53, (R)-2-{[4-(4-fluoro-butoxy)-benzenesulfonyl]-(4-methoxy-benzyl)-amino}-N-hydroxy-4-methyl-valeramide] | 8.04 |
